Laboratory results taken from US20160067221A1, “USE OF ERGOTHIONEINE FOR INDUCING ACTIVITY OF NRF2 IN CELL” (China Medical University, priority 2014, published 2016).

System: Nrf2
Assay: Ergothioneine-induced Nrf2 nuclear translocation after kinase inhibitor pretreatment (Western blot)
Type: cell-based, human
Details: inhibitor 2.5 μM 30 minutes, then 500 nM ergothioneine 1 hour
Method: Given that the ergothioneine can activate the Nrf2 to induce the expression of the downstream antioxidant genes; this example further investigates the pathway of the Nrf2 activated by the ergothioneine.
The HaCaT cells are incubated with respective pharmacological inhibitors of p38 (SB203580; 20 μM), ERK (PD98059; 20 μM), JNK (SP600125; 20 μM), PI3K (LY294002; 20 μM), PKC (GF109203X; 2.5 μM), or ROS (NAC; 1 mM) for 30 minutes, and then incubated with 500 nM ergothioneine for 1 hour. After the incubation, nuclear extracts and cytosolic extracts are collected to observe the expression of the Nrf2 nuclear translocation. FIG. 12 illustrates that the ergothioneine induces a Nrf2-mediated antioxidant signaling pathway. The data result is represented by mean±SD values; n=3, wherein * represents ρ<0.05 compared to the control group.

CN(C)CCCn1cc(C2=C(c3c[nH]c4ccccc34)C(=O)NC2=O)c2ccccc21 [GF109203X]
expression of the Nrf2 nuclear translocation: significantly inhibited
